Source: the NIST ThermoML archive (doi:10.1016/j.jct.2015.08.013)
Numbers after ± are expanded uncertainties.

Tests used:
[1] = 100 kPa, Liquid; for viscosity: Capillary tube (Ostwald / Ubbelohde) method; for mass density: Vibrating tube method
[2] = xn = mol fraction of the nth substance listed; details: 100 kPa, Liquid, x1 = 1; for mass density: Vibrating tube method; for viscosity: Capillary tube (Ostwald / Ubbelohde) method

Structure (SMILES)	viscosity ([1]; 298.15 K) [mPa·s]	viscosity ([1]; 303.15 K) [mPa·s]	viscosity ([1]; 308.15 K) [mPa·s]	viscosity ([1]; 313.15 K) [mPa·s]	viscosity ([1]; 318.15 K) [mPa·s]	viscosity ([1]; 323.15 K) [mPa·s]	mass density ([2]; 293.15 K) [kg/m3]	viscosity ([2]; 298.15 K) [mPa·s]	mass density ([2]; 298.15 K) [kg/m3]	viscosity ([2]; 303.15 K) [mPa·s]	mass density ([2]; 303.15 K) [kg/m3]	viscosity ([2]; 308.15 K) [mPa·s]	mass density ([2]; 308.15 K) [kg/m3]	viscosity ([2]; 313.15 K) [mPa·s]	mass density ([2]; 313.15 K) [kg/m3]	viscosity ([2]; 318.15 K) [mPa·s]	mass density ([2]; 318.15 K) [kg/m3]	viscosity ([2]; 323.15 K) [mPa·s]	mass density ([2]; 323.15 K) [kg/m3]	other results
CC1COC(=O)O1 (stereo not given) [4-methyl-1,3-dioxolan-2-one]	2.52 ± 0.052	2.27 ± 0.047	2.08 ± 0.043	1.91 ± 0.04	1.75 ± 0.036	1.62 ± 0.034	–	–	–	–	–	–	–	–	–	–	–	–	–	–
CN1CCCC1=O [N-methylpyrrolidone]	1.677 ± 0.036	1.536 ± 0.033	1.429 ± 0.03	1.338 ± 0.029	1.248 ± 0.027	1.178 ± 0.025	–	–	–	–	–	–	–	–	–	–	–	–	–	mass density ([1]; 293.15 K): 1032.66 ± 1.6 kg/m3; mass density ([1]; 298.15 K): 1028.17 ± 1.6 kg/m3; mass density ([1]; 303.15 K): 1023.6 ± 1.6 kg/m3; mass density ([1]; 308.15 K): 1019.49 ± 1.6 kg/m3; mass density ([1]; 313.15 K): 1014.74 ± 1.6 kg/m3; mass density ([1]; 318.15 K): 1010.2 ± 1.6 kg/m3; mass density ([1]; 323.15 K): 1005.89 ± 1.6 kg/m3
CN1CCCC1=O [N-methylpyrrolidone] + CC1COC(=O)O1	–	–	–	–	–	–	1032.66 ± 1.6	1.677 ± 0.036	1028.17 ± 1.6	1.536 ± 0.033	1023.6 ± 1.6	1.429 ± 0.03	1019.49 ± 1.6	1.338 ± 0.029	1014.74 ± 1.6	1.248 ± 0.027	1010.2 ± 1.6	1.178 ± 0.025	1005.89 ± 1.6	–
CN1CCCC1=O [N-methylpyrrolidone] + O=C1CCCO1	–	–	–	–	–	–	1032.66 ± 1.6	1.677 ± 0.036	1028.17 ± 1.6	1.536 ± 0.033	1023.6 ± 1.6	1.429 ± 0.03	1019.49 ± 1.6	1.338 ± 0.029	1014.74 ± 1.6	1.248 ± 0.027	1010.2 ± 1.6	1.178 ± 0.025	1005.89 ± 1.6	–
